Test results published in the NIST ThermoML archive (doi:10.1016/j.fluid.2010.10.022).

Experiment: excess molar enthalpy (molar enthalpy of mixing); xn = mol fraction of the nth substance listed
Conditions: 298.15 K, 101 kPa, Liquid, Flow calorimetry

C#CCCCC [1-hexyne] + CCCOC(C)=O
Conditions	excess molar enthalpy [kcal/mol]
x2 = 0.1079	-0.0304
x2 = 0.1967	-0.0477
x2 = 0.3032	-0.0608
x2 = 0.395	-0.066
x2 = 0.4373	-0.0664
x2 = 0.5003	-0.0654
x2 = 0.595	-0.0605
x2 = 0.6575	-0.0553
x2 = 0.6989	-0.0511
x2 = 0.7967	-0.038
x2 = 0.8992	-0.0205

CC#CCCC [2-hexyne] + CCCOC(C)=O
Conditions	excess molar enthalpy [kcal/mol]
x2 = 0.1094	0.0106
x2 = 0.204	0.0174
x2 = 0.3153	0.022
x2 = 0.4179	0.0249
x2 = 0.5044	0.0245
x2 = 0.5938	0.0215
x2 = 0.7075	0.0157
x2 = 0.7983	0.0108
x2 = 0.8927	0.00645

CCC#CCC [3-hexyne] + CCCOC(C)=O
Conditions	excess molar enthalpy [kcal/mol]
x2 = 0.0968	0.0105
x2 = 0.202	0.0186
x2 = 0.3025	0.0269
x2 = 0.4063	0.0341
x2 = 0.4979	0.0377
x2 = 0.5956	0.0353
x2 = 0.7045	0.0267
x2 = 0.7995	0.0182
x2 = 0.8928	0.0101
